Test results from PMC7170360 (Drug Delivery, 2020).

How the values were obtained:
[1] = Rat pharmacokinetics after intravenous administration; assay type: in vivo, Sprague-Dawley rats; conditions: Sprague-Dawley, plasma, 1.5 mg/kg
Description: The pharmacokinetics of HES-10-HCPT-SS-Ly micelles and 10-HCPT injection in Sprague-Dawley rats were evaluated in this study (n = 6). Briefly, HES-10-HCPT-SS-Ly micelles and 10-HCPT injection were injected, respectively. The dose of 10-HCPT was 1.5 mg/kg in both groups. 0.2 mL blood was collected 5 min, 10 min, 15 min, 30 min, 60 min, 2 h, 4 h, 6 h, 8 h, 12 h, 24 h, 48 h, and 72 h after administration. The concentration of 10-HCPT in plasma was determined by HPLC–MS/MS method.

Hep-G2 cells [2] = assay: Cellular uptake test (10-HCPT in cells by HPLC-MS/MS); assay type: cell-based, human; conditions: pH 7.4, 72 h incubation, compared with HES-10-HCPT micelles and HES-10-HCPT-SS-Ly micelles
Description: The in vitro cytotoxicity of HES-10-HCPT-SS-Ly micelles was evaluated by MTT assay and Hep-G2 cell lines were used as model object. The Hep-G2 cells were seeded by using 96-well plates and the cell density was 6 × 10^3. The temperature of cell culture was 37 °C and the concentration of CO2 was 5%. The culture medium was removed after 24 h and the micelle solutions with different concentrations are added. The incubation time was 48 h and 72 h respectively to fully evaluate the relationship between cytotoxicity and culture time. Then, 50 μL MTT (0.25 mg/mL) was added to each well and the supernatant was removed. The precipitated formazan crystals were dissolved by DMSO solution after 4 h. The OD values were determined by using an ELIASA reader and the detection wavelength was 492 nm. In addition, cellular uptake of HES-10-HCPT-SS-Ly micelles was also assessed in Hep-G2 cell line. Similarly, the culture medium was removed and different 10-HCPT preparations were added with concentrations of 1.0 mg/mL 24 h after incubation. […] Briefly, cells were collected and lysed using a French Pressure Cell, the lysate was clarified by centrifugation, and the supernatant liquid was processed by applying liquid–liquid extraction. Then, the concentration of 10-HCPT in Hep-G2 cells was determined by HPLC–MS/MS method.

Hep-G2 cells [3] = assay: MTT cytotoxicity assay; assay type: cell-based; conditions: Homo sapiens
Description: The in vitro cytotoxicity of HES-10-HCPT-SS-Ly micelles was evaluated by MTT assay and Hep-G2 cell lines were used as model object. The Hep-G2 cells were seeded by using 96-well plates and the cell density was 6 × 10^3. The temperature of cell culture was 37 °C and the concentration of CO2 was 5%. The culture medium was removed after 24 h and the micelle solutions with different concentrations are added. The incubation time was 48 h and 72 h respectively to fully evaluate the relationship between cytotoxicity and culture time. Then, 50 μL MTT (0.25 mg/mL) was added to each well and the supernatant was removed. The precipitated formazan crystals were dissolved by DMSO solution after 4 h. The OD values were determined by using an ELIASA reader and the detection wavelength was 492 nm. In addition, cellular uptake of HES-10-HCPT-SS-Ly micelles was also assessed in Hep-G2 cell line. Similarly, the culture medium was removed and different 10-HCPT preparations were added with concentrations of 1.0 mg/mL 24 h after incubation. The 96-well plate was incubated at room temperature on a plate shaker for 24 h, the cells were then washed three times with PBS solution. […] Then, the concentration of 10-HCPT in Hep-G2 cells was determined by HPLC–MS/MS method.

For `CC[C@@]1(O)C(=O)OCc2c1cc1n(c2=O)Cc2cc3cc(O)ccc3nc2-1` [free 10-HCPT, 10-Hydroxy camptothecin], the half-life [1] was 10 min, the “cellular uptake by Hep G2 cells” value (Hep-G2 cells [2]) was “more easily taken up” and the IC50 (Hep-G2 cells [3]; HepG2, culture medium pH 7.4, MTT) was 5.1 µM. The IC50 (Hep-G2 cells [3]; HepG2, pH 5.5, MTT) was 4.3 µM.
